The text below walks through data of US10597366B2, “Aryl ethers and uses thereof” (Peloton Therapeutics, Inc., priority 2013, dated 2020).

SMILES strings stand for the structures.

The first assay concerns 786-O-Hif-Luc cells (luciferase gene driven by multiple HIF responsive elements). Nature of the assay: Luciferase Assay. In kind it is cell-based. To be noted: 24 h, 786-O-Hif-Luc cells, about 24 hours; read-out: Mean Luciferease EC50. Here is the method:
A pool of infected cells were then selected against 2 μg/mL of puromycin (P8833, Sigma) for 10 days followed by limited dilution to select single clones.
Each concentration was tested in triplicate. After about 24 hours, luciferase activity was determined using ONE-Glo Luciferase Assay Reagent (E6110, Promega) following the manufacturer's recommended procedure. EC50 were calculated by using Dotmatics software.
For `N#Cc1cccc(Oc2ccc(S(=O)(=O)C(F)F)c(CO)c2Br)c1` [Compound 81, 3-(2-Bromo-4-((difluoromethyl)sulfonyl)-3-(hydroxymethyl)phenoxy)benzonitrile], the EC50 came to 0.85 µM.

Consider `Cc1c(S(C)(=O)=O)ccc(Oc2cc(F)cc(F)c2)c1C#N` [Compound 52, 6-(3,5-Difluorophenoxy)-2-methyl-3-(methylsulfonyl)benzonitrile], for which the EC50 is 1 µM.

As for `CS(=O)(=O)c1ccc(Oc2cc(F)cc(F)c2)c(C(F)F)c1C#N` [Compound 93, 2-(Difluoromethyl)-3-(3,5-difluorophenoxy)-6-(methylsulfonyl)benzonitrile], the EC50 was found to be 0.68 µM. The same measure, in the same setting: then `O=S(=O)(c1ccc(Oc2cc(F)cc(Cl)c2)c(Br)c1)C(F)F` [Compound 131, 2-Bromo-1-(3-chloro-5-fluorophenoxy)-4-((difluoromethyl)sulfonyl)benzene], with 2 µM. On the same count and under the same terms, the same measure for `Cc1cc(Oc2cc(F)cc(C#N)c2)c2c(c1S(C)(=O)=O)C(O)C(F)(F)C2` (stereo not drawn) [Compound 213, 3-((2,2-Difluoro-1-hydroxy-6-methyl-7-(methylsulfonyl)-2,3-dihydro-1H-inden-4-yl)oxy)-5-fluorobenzonitrile]: 0.77 µM; for `CS(=N)(=O)c1ccc(Oc2cc(F)cc(F)c2)c2c1C(O)CC2` (stereo not drawn) [Compound 190, (7-(3,5-Difluorophenoxy)-3-hydroxy-2,3-dihydro-1H-inden-4-yl)(imino)(methyl)-λ^6-sulfanone]: 12.7 µM; for `Cc1c(Oc2cc(F)cc(C#N)c2)ccc(S(=O)(=O)C(F)(F)F)c1Cl` [Compound 144, 3-Fluoro-5-[3-chloro-2-methyl-4-(trifluoromethylsulfonyl)phenoxy]benzonitrile]: 0.39 µM.

Take `CCS(=O)(=O)c1ccc(Oc2cc(F)cc(Cl)c2)c2c1C(O)CC2` (stereo not drawn) [Compound 91, 4-(3-Chloro-5-fluorophenoxy)-7-(ethylsulfonyl)-2,3-dihydro-1H-inden-1-ol]: the EC50 worked out at 2.3 µM. In the case of `N#Cc1cc(F)cc(Oc2ccc(S(=O)(=O)C(F)(F)F)c3c2CC(F)(F)[C@H]3NCCO)c1` [Compound 291, 3-[(1S)-2,2-difluoro-1-(2-hydroxyethylamino)-7-(trifluoromethylsulfonyl)indan-4-yl]oxy-5-fluoro-benzonitrile], the EC50 is 3.1 µM. The same measure, in the same setting: then `CS(=O)(=O)c1ccc(Oc2cncc(Br)c2)c2c1[C@H](O)C(F)(F)C2` [Compound 324, (S)-4-((5-Bromopyridin-3-yl)oxy)-2,2-difluoro-7-(methylsulfonyl)-2,3-dihydro-1H-inden-1-ol], with 0.48 µM.

In the case of `N#Cc1c(S(=O)(=O)C(F)(F)F)ccc(Oc2cc(F)cc(Cl)c2)c1Cl` [Compound 111, 2-Chloro-3-(3-chloro-5-fluorophenoxy)-6-((trifluoromethyl)sulfonyl)benzonitrile], the EC50 came to 1.38 µM.

Consider `N#Cc1c(S(=O)(=O)C(F)F)ccc(Oc2cc(F)cc(Cl)c2)c1Cl` [Compound 38, 2-Chloro-3-(3-chloro-5-fluorophenoxy)-6-((difluoromethyl)sulfonyl)benzonitrile], for which the EC50 was determined as 0.39 µM. As for `CC(O)c1c(S(=O)(=O)C(F)(F)F)ccc(Oc2cc(F)cc(Cl)c2)c1Br` (stereo not drawn) [Compound 103, 1-(2-Bromo-3-(3-chloro-5-fluorophenoxy)-6-((trifluoromethyl)sulfonyl)phenyl)ethan-1-ol], the EC50 was 3.3 µM. On the same count and under the same terms, then `N#Cc1cc(Oc2ccc(S(=O)(=O)C(F)F)c3c2CC(F)(F)[C@H]3O)ccc1F` [Compound 200, (S)-5-((7-((Difluoromethyl)sulfonyl)-2,2-difluoro-1-hydroxy-2,3-dihydro-1H-inden-4-yl)oxy)-2-fluorobenzonitrile], with 0.13 µM; and `CS(=O)(=O)c1ccc(Oc2cncc(C#N)c2)c2c1[C@H](O)[C@H](F)C2` [Compound 313, 5-(((1S,2R)-2-fluoro-1-hydroxy-7-(methylsulfonyl)-2,3-dihydro-1H-inden-4-yl)oxy)nicotinonitrile], with 1.1 µM; and `Cc1c(Oc2cc(F)cc(Cl)c2)ccc(S(=O)(=O)C(F)(F)F)c1Br` [Compound 140, 3-Bromo-1-(3-chloro-5-fluoro-phenoxy)-2-methyl-4-(trifluoromethylsulfonyl)benzene], with 2.4 µM.

In the case of `O=S(=O)(c1ccc(Oc2cc(Cl)cc(Cl)c2)c(Br)c1)C(F)(F)F` [Compound 172, 2-Bromo-1-(3,5-dichlorophenoxy)-4-((trifluoromethyl)sulfonyl)benzene], the EC50 was found to be 3.41 µM. The same measure, in the same setting: the same measure for `O=S(=O)(CF)c1ccc(Oc2cccc3sccc23)c2c1C(O)C(F)(F)C2` (stereo not drawn) [Compound 242, 4-(Benzo[b]thiophen-4-yloxy)-2,2-difluoro-7-((fluoromethyl)sulfonyl)-2,3-dihydro-1H-inden-1-ol]: 0.51 µM; for `N#Cc1cccc(Oc2ccc(S(=O)(=O)C(F)(F)F)cc2Br)c1` [Compound 117, 3-(2-Bromo-4-((trifluoromethyl)sulfonyl)phenoxy)benzonitrile]: 3 µM; for `N#Cc1cc(F)cc(Oc2ccc(S(=O)(=O)C(F)F)c3c2CC(F)(F)[C@@H]3O)c1` [Compound 237, (R)-3-((7-((difluoromethyl)sulfonyl)-2,2-difluoro-1-hydroxy-2,3-dihydro-1H-inden-4-yl)oxy)-5-fluorobenzonitrile]: 0.12 µM. For `N#Cc1cccc(Oc2ccc(S(=O)(=O)C(F)F)c(CO)c2Cl)c1` [Compound 43, 3-(2-Chloro-4-((difluoromethyl)sulfonyl)-3-(hydroxymethyl)phenoxy)benzonitrile], the EC50 came out at 0.79 µM. On the same count and under the same terms, then `N#Cc1cncc(Oc2ccc(S(=O)(=O)C(F)F)c3c2CC(F)(F)[C@H]3O)c1` [Compound 27, (S)-5-((7-((Difluoromethyl)sulfonyl)-2,2-difluoro-1-hydroxy-2,3-dihydro-1H-inden-4-yl)oxy)nicotinonitrile], with 0.16 µM; and `O=S(=O)(c1ccc(Oc2ccc(F)c3[nH]ncc23)c2c1C(O)C(F)(F)C2)C(F)(F)F` (stereo not drawn) [Compound 241, 2,2-Difluoro-4-((7-fluoro-1H-indazol-4-yl)oxy)-7-((trifluoromethyl)sulfonyl)-2,3-dihydro-1H-inden-1-ol], with 0.14 µM. On the same count and under the same terms, then `Cn1cc(Oc2ccc(S(=O)(=O)C(F)(F)F)c3c2CC(F)(F)[C@H]3O)cn1` [Compound 224, (S)-2,2-Difluoro-4-((1-methyl-1H-pyrazol-4-yl)oxy)-7-((trifluoromethyl)sulfonyl)-2,3-dihydro-1H-inden-1-ol], with 0.18 µM; and `N#Cc1cc(F)cc(Oc2ccc(S(=O)(=O)CCO)c3c2CC(F)(F)C3O)c1` (stereo not drawn) [Compound 250, 3-((2,2-Difluoro-1-hydroxy-7-((2-hydroxyethyl)sulfonyl)-2,3-dihydro-1H-inden-4-yl)oxy)-5-fluorobenzonitrile], with 2.95 µM. The same measure, in the same setting: then `CS(=O)(=O)c1ccc(Oc2cccc(C#N)c2)c2c1[C@H](O)C(F)(F)C2` [Compound 162, 3-[(1S)-2,2-Difluoro-1-hydroxy-7-methylsulfonyl-indan-4-yl]oxybenzonitrile], with 0.063 µM; and `N#Cc1cc(F)cc(Oc2ccc(S(=O)(=O)C(F)(F)F)c3c2[C@@H](N)C[C@H]3O)c1` (relative stereo) [Compound 279, 3-((cis-3-amino-1-hydroxy-7-((trifluoromethyl)sulfonyl)-2,3-dihydro-1H-inden-4-yl)oxy)-5-fluorobenzonitrile], with 5.9 µM; and `O=S(=O)(c1ccc(Oc2cc(F)cc(F)c2)c2c1C=CC2)C(F)F` [Compound 21, 4-((Difluoromethyl)sulfonyl)-7-(3,5-difluorophenoxy)-1H-indene], with 1.54 µM.

Take `N#Cc1cc(F)cc(Oc2ccc(S(=O)(=O)CCl)c3c2CC(F)(F)[C@H]3O)c1` [Compound 215, (S)-3-((7-((Chloromethyl)sulfonyl)-2,2-difluoro-1-hydroxy-2,3-dihydro-1H-inden-4-yl)oxy)-5-fluorobenzonitrile]: the EC50 was determined as 0.022 µM. On the same count and under the same terms, the same measure for `CS(=O)(=O)c1ccc(Oc2cc(F)cc(C#N)c2)c2c1[C@H](O)C[C@@H]2F` [Compound 295, 3-fluoro-5-[(1R,3S)-3-fluoro-1-hydroxy-7-methylsulfonyl-indan-4-yl]oxy-benzonitrile]: 0.39 µM.

Still in this assay, the particulars now being: 24 h, read-out: Mean Luciferease EC50.
On to `CS(=O)(=O)c1ccc(Oc2cc(F)cc(C#N)c2)c2c1[C@H](O)[C@H](F)[C@@H]2F` [Compound 289, 3-[(1S,2S,3R)-2,3-difluoro-1-hydroxy-7-methylsulfonyl-indan-4-yl]oxy-5-fluoro-benzonitrile], for which the EC50 turned out to be 0.0042 µM. In the case of `N#Cc1cc(F)cc(Oc2ccc(S(N)(=O)=O)c3c2[C@@H](F)C(F)(F)[C@H]3O)c1` [Compound 338, (1R,3S)-7-(3-cyano-5-fluoro-phenoxy)-1,2,2-trifluoro-3-hydroxy-indane-4-sulfonamide], the EC50 turned out to be 0.0061 µM.

As to `[2H][C@]1(O)c2c(S(C)(=O)=O)ccc(Oc3cc(F)cc(C#N)c3)c2CC1(F)F` [Compound 247, (S)-3-((2,2-Difluoro-1-hydroxy-7-(methylsulfonyl)-2,3-dihydro-1H-inden-4-yl-1-d)oxy)-5-fluorobenzonitrile], the EC50 was found to be 0.024 µM. On the same count and under the same terms, the same measure for `N#Cc1cccc(Oc2ccc(S(=O)(=O)C(F)F)c3c2CC[C@H]3O)c1` [Compound 156, 3-[(1R)-7-(Difluoromethylsulfonyl)-1-hydroxy-indan-4-yl]oxybenzonitrile]: 0.35 µM; for `N#Cc1cc(F)cc(Oc2ccc(S(=O)(=O)C(F)(F)F)c3c2CC(F)(F)[C@H]3N)c1` [Compound 290, 3-[(1S)-1-amino-2,2-difluoro-7-(trifluoromethylsulfonyl)indan-4-yl]oxy-5-fluoro-benzonitrile]: 0.17 µM.

In the case of `CNS(=O)(=O)c1ccc(Oc2cc(F)cc(C#N)c2)c2c1[C@H](O)C(F)(F)C2` [Compound 254, (S)-7-(3-Cyano-5-fluorophenoxy)-2,2-difluoro-3-hydroxy-N-methyl-2,3-dihydro-1H-indene-4-sulfonamide], the EC50 is 0.12 µM.
